# Measurements from patent US20210188897A1, “NEUROACTIVE STEROIDS AND COMPOSITIONS AND METHODS THEREOF” (Sparx Therapeutics, Inc., priority 2019, published 2021).
# Like-named read-outs stand apart in the source and are kept apart here.
# Tests used:
# α1β2δ GABAA receptors = target: T1, α1β2δ GABAA receptors (Homo sapiens, UniProt P14867+P47870); test: GABAAR modulator FLIPR assay (membrane potential), α1β2δ; assay type: cell-based
# T1 construct: expressed in transfected cells; host or cells: 293T cells (ATCC-CRL-1573)
# T1 sequence (P14867 28-456): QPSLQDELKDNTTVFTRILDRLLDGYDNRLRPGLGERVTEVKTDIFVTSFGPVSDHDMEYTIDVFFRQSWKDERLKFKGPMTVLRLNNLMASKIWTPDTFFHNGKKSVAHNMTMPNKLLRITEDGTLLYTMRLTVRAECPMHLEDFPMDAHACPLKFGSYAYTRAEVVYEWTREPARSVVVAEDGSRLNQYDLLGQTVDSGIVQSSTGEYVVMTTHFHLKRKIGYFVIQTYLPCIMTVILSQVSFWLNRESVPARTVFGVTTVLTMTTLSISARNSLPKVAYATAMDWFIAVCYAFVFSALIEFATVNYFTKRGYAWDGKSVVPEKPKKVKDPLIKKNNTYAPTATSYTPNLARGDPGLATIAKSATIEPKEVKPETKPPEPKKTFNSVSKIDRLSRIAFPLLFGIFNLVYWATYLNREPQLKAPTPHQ
# T1 sequence (P47870 25-512 limits assumed): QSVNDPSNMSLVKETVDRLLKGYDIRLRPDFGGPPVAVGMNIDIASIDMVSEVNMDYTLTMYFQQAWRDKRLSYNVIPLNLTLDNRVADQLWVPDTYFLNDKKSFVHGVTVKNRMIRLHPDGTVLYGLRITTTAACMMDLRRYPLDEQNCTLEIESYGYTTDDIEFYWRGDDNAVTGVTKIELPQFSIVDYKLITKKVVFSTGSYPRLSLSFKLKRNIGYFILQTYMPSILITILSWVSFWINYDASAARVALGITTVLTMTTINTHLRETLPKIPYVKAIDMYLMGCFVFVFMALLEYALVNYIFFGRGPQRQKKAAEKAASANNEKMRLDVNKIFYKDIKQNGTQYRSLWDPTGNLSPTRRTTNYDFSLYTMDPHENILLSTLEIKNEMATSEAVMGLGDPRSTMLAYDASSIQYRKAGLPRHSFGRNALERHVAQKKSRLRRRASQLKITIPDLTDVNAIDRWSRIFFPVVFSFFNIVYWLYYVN
# T1 sequence (O14764 17-452 partner limits assumed): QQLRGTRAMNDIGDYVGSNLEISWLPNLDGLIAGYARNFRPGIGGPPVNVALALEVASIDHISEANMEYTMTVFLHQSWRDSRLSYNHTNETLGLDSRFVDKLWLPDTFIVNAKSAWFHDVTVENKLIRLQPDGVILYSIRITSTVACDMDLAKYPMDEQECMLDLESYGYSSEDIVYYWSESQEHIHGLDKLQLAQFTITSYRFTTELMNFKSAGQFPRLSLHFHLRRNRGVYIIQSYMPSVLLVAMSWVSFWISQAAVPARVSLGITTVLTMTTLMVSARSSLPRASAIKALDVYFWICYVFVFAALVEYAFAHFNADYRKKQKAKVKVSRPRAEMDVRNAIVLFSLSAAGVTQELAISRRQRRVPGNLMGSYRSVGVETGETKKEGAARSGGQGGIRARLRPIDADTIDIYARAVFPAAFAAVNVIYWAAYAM
# Experimental: (§1) 293T cells (ATCC-CRL-1573) were applied for transient expression of α1β2γ2 or α1β2δ GABAA receptors. Cells were plated in a 96 well plate with a confluence of about 70%-80% and cultured overnight in complete medium without antibiotics. The α1β2γ2 or α1β2δ subunits were transfected via the lipofectamine method. The FLIPR assay was developed to quantitatively assess the compounds' PAM activity in α1β2γ2 and α1β2δ GABAA receptors. The FLIPR assays were conducted 48 h post-transfection. The FLIPR reagents were purchased from Molecular Devices Corporation (Membrane potential red kit, Catalog number R8126). The FMP-Red-Dye was reconstituted to 1× assay buffer. Growth medium was removed from the wells and cells were loaded with 100 μL FMP-Red-Due solution for 30 minutes in the dark at r.t. After dye loading, each plate was transferred to the FLIPR Tetra Station: the dye was excited at 510-545 nm, and the fluorescence signals were recorded at 565-625 nm. Baseline recordings were acquired for 1 minute. FMP-Red-Dye is a slow-response, potential sensitive probe and the maximal response is usually seen within 2 minutes after triggering cellular depolarization or hyperpolarization. After baseline recording, the different doses of compound solutions were firstly added on cells and the fluorescent signals were recorded for 5 minutes. Then the cells were followed by a second addition with ligand GABA solution and recorded for another 3.5 minutes. Cell responses were calculated as ΔF=Fmax−Fmin, where Fmax was the maximum response in arbitrary fluorescence units, and Fmin was the baseline arbitrary fluorescence unit value.
# α1β2γ2 GABAA receptors = target: T2, α1β2γ2 GABAA receptors (Homo sapiens, UniProt P14867+P47870); test: GABAAR modulator FLIPR assay (membrane potential), α1β2γ2; assay type: cell-based
# T2 construct: expressed in transfected cells; host or cells: 293T cells (ATCC-CRL-1573)
# T2 sequence (P18507 40-475 partner, one chain of several): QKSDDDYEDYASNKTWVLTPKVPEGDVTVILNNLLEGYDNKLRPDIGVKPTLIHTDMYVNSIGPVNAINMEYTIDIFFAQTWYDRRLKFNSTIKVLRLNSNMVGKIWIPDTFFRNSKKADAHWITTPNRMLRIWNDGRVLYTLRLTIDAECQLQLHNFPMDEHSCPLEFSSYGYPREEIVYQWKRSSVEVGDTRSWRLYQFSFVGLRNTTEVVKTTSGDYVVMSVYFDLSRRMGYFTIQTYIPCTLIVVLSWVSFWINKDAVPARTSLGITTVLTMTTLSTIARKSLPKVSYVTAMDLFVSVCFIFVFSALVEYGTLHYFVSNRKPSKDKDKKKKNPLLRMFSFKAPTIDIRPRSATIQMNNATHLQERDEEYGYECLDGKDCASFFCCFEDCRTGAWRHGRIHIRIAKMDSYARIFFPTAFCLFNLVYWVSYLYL
# Experimental: as §1
# 5XFAD and wild type mice [1] = test: Open field test; assay type: in vivo; settings: 9-month old 5XFAD and wild type mice, 20 mg/kg oral gavage, 45 minutes post dosing; FIG. 2
# Experimental: 9-month old 5XFAD transgenic mice (expressing human APP and PSEN1 transgenes with 5 AD-linked mutations) and wild type litermates (C57/B16) were dosed as at 20 mg/kg via oral gavage. The total distance travelled was recorded in an open field chamber 45 minutes post dosing.
# 5XFAD and wild type mice [2] = test: Forced swim test; assay type: in vivo; settings: 9-month old 5XFAD and wild type mice, 20 mg/kg oral gavage, 45 minutes post dosing; FIG. 3
# Experimental: 9-month old 5XFAD transgenic mice (expressing human APP and PSEN1 transgenes with 5 AD-linked mutations) and wild type litermates (C57/B16) were dosed as at 20 mg/kg via oral gavage. The cognitive and mood behavioral tests were performed 45 minutes post dosing.
# The forced swim test is a test for depression-like behavior in rodents. The assay involves observing a mouse stay afloat in a tank of water and monitoring how much time it spends immobile.
# [3] = 293T cells transiently expressing α1β2δ GABAA receptors, FLIPR, PAM activity, read-out: EC50 in α1β2δ/293T
# [4] = 293T cells transiently expressing α1β2γ2 GABAA receptors, FLIPR, PAM activity, read-out: EC50 in α1β2γ2/293T
compound,measurement,setting,value
"C=C1C[C@H]2[C@@H](CC[C@@H]3C[C@](C)(O)CC[C@@H]32)[C@@H]2CC[C@H](C#N)[C@@]12C [Example 1, (3R,5R,8R,9R,10S,13S,14S,17S)-3-hydroxy-3,13-dimethyl-12-methylenehexadecahydro-1H-cyclopenta[a]phenanthrene-17-carbonitrile]",EC50,α1β2δ GABAA receptors,81 nM
same,EC50,α1β2γ2 GABAA receptors,270 nM
"C[C@@]1(O)CC[C@H]2[C@H](CC[C@@H]3[C@@H]2CC(F)(F)[C@]2(C)[C@@H](C(=O)Cn4cc(F)cn4)CC[C@@H]32)C1 [Example 7, 1-((3R,5R,8R,9R,10S,13S,14S,17S)-12,12-difluoro-3-hydroxy-3,13-dimethylhexadecahydro-1H-cyclopenta[a]phenanthren-17-yl)-2-(4-fluoro-1H-pyrazol-1-yl)ethan-1-one]",EC50,α1β2δ GABAA receptors; [3],390 nM
same,EC50,α1β2γ2 GABAA receptors; [4],740 nM
"C[C@@]1(O)CC[C@H]2[C@H](CC[C@@H]3[C@@H]2CC(F)(F)[C@]2(C)[C@@H](C(=O)Cn4ccc(C#N)n4)CC[C@@H]32)C1 [Example 8, 1-(2-((3R,5R,8R,9R,10S,13S,14S,17S)-12,12-difluoro-3-hydroxy-3,13-dimethylhexadecahydro-1H-cyclopenta[a]phenanthren-17-yl)-2-oxoethyl)-1H-pyrazole-3-carbonitrile]",locomotor functions (total distance travelled in open field chamber),5XFAD and wild type mice [1],no interference of the locomotor functions
same,"efficacy in forced swim test (time immobile, depression-like behavior)",5XFAD and wild type mice [2],genotype-specific efficacy
same,EC50,α1β2δ GABAA receptors; [3],250 nM
same,EC50,α1β2γ2 GABAA receptors; [4],630 nM
"C=C1C[C@H]2[C@@H](CC[C@@H]3C[C@](C)(O)CC[C@@H]32)[C@@H]2CC[C@H](C(C)=O)[C@@]12C [Example 2, 1-((3R,5R,8R,9R,10S,13S,14S,17S)-3-hydroxy-3,13-dimethyl-12-methylenehexadecahydro-1H-cyclopenta[a]phenanthren-17-yl)ethan-1-one]",EC50,α1β2δ GABAA receptors; [3],98 nM
same,EC50,α1β2γ2 GABAA receptors; [4],280 nM
"C[C@@]1(O)CC[C@H]2[C@H](CC[C@@H]3[C@@H]2CC(F)(F)[C@]2(C)[C@@H](C#N)CC[C@@H]32)C1 [Example 4, (3R,5R,8R,9R,10S,13S,14S,17S)-12,12-difluoro-3-hydroxy-3,13-dimethylhexadecahydro-1H-cyclopenta[a]phenanthrene-17-carbonitrile]",EC50,α1β2δ GABAA receptors; [3],710 nM
same,EC50,α1β2γ2 GABAA receptors; [4],2950 nM
"C[C@@]1(O)CC[C@H]2[C@H](CC[C@@H]3[C@@H]2CC(F)(F)[C@]2(C)[C@@H](C(=O)Cn4cc(C#N)cn4)CC[C@@H]32)C1 [Example 6, 1-(2-((3R,5R,8R,9R,10S,13S,14S,17S)-12,12-difluoro-3-hydroxy-3,13-dimethylhexadecahydro-1H-cyclopenta[a]phenanthren-17-yl)-2-oxoethyl)-1H-pyrazole-4-carbonitrile]",EC50,α1β2δ GABAA receptors; [3],120 nM
same,EC50,α1β2γ2 GABAA receptors; [4],470 nM
"CC(=O)[C@H]1CC[C@H]2[C@@H]3CC[C@@H]4C[C@](C)(O)CC[C@@H]4[C@H]3CC(F)(F)[C@]12C [Example 5, 1-((3R,5R,8R,9R,10S,13S,14S,17S)-12,12-difluoro-3-hydroxy-3,13-dimethylhexadecahydro-1H-cyclopenta[a]phenanthren-17-yl)ethan-1-one]",EC50,α1β2δ GABAA receptors; [3],190 nM
same,EC50,α1β2γ2 GABAA receptors; [4],390 nM
